{"source": "patent US8586110B2", "about": "“Therapeutic composition produced using Camellia sinensis leaves and hydrogen peroxide” (LiveLeaf, Inc., priority 2007, dated 2013)", "tested_on": "wild strain E-Coli", "experiment": "E-Coli culture turbidity over time (Experiment 4)", "assay_type": "cell-based", "settings": "25 ppm hydrogen peroxide or equivalent concentration", "procedure": "A wild strain E-Coli culture was added to three samples. The sample A contained 25 ppm hydrogen peroxide in water. The sample B contained a solution of Formulation A diluted to equivalent 25 ppm hydrogen peroxide fraction. The sample C contained a solution having a green tea extract of the same concentration of Formulation A but without hydrogen peroxide."}
{"molecule": "OO", "note": "[hydrogen peroxide]", "values": [{"measurement": "antimicrobial effect on bacteria population (visual turbidity)", "value": "initially reduced but began to exhibit increased visual turbidity after 16 hours"}]}
